Tests used:
Format in all cases: cell-based
LNCaP cells = experiment: MTT assay (cytotoxicity), LNCaP cells; conditions: 72 h, Table 2.2
Procedure: (§1) MTT assays: LNCaP, 22Rv1, Du145, H1975, A549, MB231 and MCF-7 cells are maintained in RPMI 1640 supplemented with 10% FBS. Cells were seeded at a density of 6-7×10^3 cells per well in 96-well plates. After overnight incubation, cells in fresh RPMI 1640 supplemented with 10% FBS were exposed to DMSO vehicle control or test compounds at designated concentrations for 72 h. Viable cells were evaluated by MTT assays. Experiments were performed in triplicate and repeated at least twice.

22Rv1 cells = experiment: MTT assay (cytotoxicity), 22Rv1 cells; conditions: 72 h, Table 2.2
Procedure: as §1

DU145 cells = experiment: MTT assay (cytotoxicity), DU145 cells; conditions: 72 h, Table 2.2
Procedure: as §1

[1] = MTT assay (cytotoxicity), LNCaP cells; conditions: human, LNCaP cells, 72 h
Procedure: as §1

[2] = MTT assay (cytotoxicity), 22Rv1 cells; conditions: human, 22Rv1 cells, 72 h
Procedure: as §1

[3] = MTT assay (cytotoxicity), DU145 cells; conditions: human, DU145 cells
Procedure: as §1

O=C(N/C=C/c1cccc(F)c1)Nc1ccc([N+](=O)[O-])c(C(F)(F)F)c1 [Compound 412]
IC50 (LNCaP cells): 18.8 µM
IC50 (22Rv1 cells): > 20 µM

O=C(N/C=C/c1cccc(F)c1)Nc1cccc(C(F)(F)F)c1 [Compound 414]
IC50 (LNCaP cells): 3.8 µM
IC50 (22Rv1 cells): 8.2 µM
IC50 (DU145 cells): 7.8 µM

O=C(N/C=C/c1ccccc1)Nc1cccc(C(F)(F)F)c1 [Compound 415]
IC50 (LNCaP cells): 6.6 µM
IC50 (22Rv1 cells): 11 µM
IC50 (DU145 cells): 14 µM

N#Cc1ccc(NC(=O)N/C=C/c2cccc(C(F)(F)F)c2)cc1 [Compound 416]
IC50 (LNCaP cells): 1.6 µM
IC50 (22Rv1 cells): 3.6 µM
IC50 (DU145 cells): 2.6 µM

COc1cccc(NC(=O)N/C=C/c2cccc(C(F)(F)F)c2)c1 [Compound 417]
IC50 (LNCaP cells): 14.6 µM
IC50 (22Rv1 cells): 10.8 µM
IC50 (DU145 cells): 12.2 µM

O=C(N/C=C/c1cccc(C(F)(F)F)c1)Nc1ccc2c(c1)OCO2 [Compound 418]
IC50 at 72 h ([1]; Table 2.3): > 20 µM
IC50 at 72 h ([2]; Table 2.3): > 20 µM
IC50 at 72 h ([3]; Table 2.3): > 20 µM

O=C(N/C=C/c1cccs1)Nc1ccc([N+](=O)[O-])c(C(F)(F)F)c1 [Compound 419]
IC50 at 72 h ([1]; Table 2.4): 3.2 µM
IC50 at 72 h ([2]; Table 2.4): 4.1 µM
IC50 at 72 h ([3]; Table 2.4): 6.9 µM

O=C(N/C=C/c1cccs1)Nc1cccc(C(F)(F)F)c1 [Compound 420]
IC50 at 72 h ([1]; Table 2.4): 6.4 µM
IC50 at 72 h ([2]; Table 2.4): 12.3 µM
IC50 at 72 h ([3]; Table 2.4): 12.3 µM

N#Cc1ccc(NC(=O)N/C=C/c2ccc(C(F)(F)F)cc2)cc1C(F)(F)F [Compound 421]
IC50 (LNCaP cells): 1.4 µM
IC50 (22Rv1 cells): 7.2 µM
IC50 (DU145 cells): 3.4 µM

N#Cc1ccc(NC(=O)N/C=C/c2cccs2)cc1 [Compound 424]
IC50 at 72 h ([1]; Table 2.4): 5 µM
IC50 at 72 h ([2]; Table 2.4): 16.7 µM
IC50 at 72 h ([3]; Table 2.4): 14.4 µM

O=C(N/C=C/c1ccccc1C(F)(F)F)Nc1ccc2c(c1)OCO2 [Compound 427]
IC50 at 72 h ([1]; Table 2.3): 9.5 µM
IC50 at 72 h ([3]; Table 2.3): 19.2 µM

COc1cccc(NC(=O)N/C=C/c2ccccc2C(F)(F)F)c1 [Compound 429]
IC50 (LNCaP cells): 9.1 µM
IC50 (22Rv1 cells): 16.4 µM
IC50 (DU145 cells): 14.9 µM

COc1cccc(/C=C/NC(=O)Nc2cccc(OC)c2)c1 [Compound 430]
IC50 (LNCaP cells): > 20 µM
IC50 (22Rv1 cells): > 20 µM

COc1cccc(/C=C/NC(=O)Nc2ccc3c(c2)OCO3)c1 [Compound 431]
IC50 at 72 h ([1]; Table 2.3): 17.3 µM
IC50 at 72 h ([2]; Table 2.3): > 20 µM
IC50 at 72 h ([3]; Table 2.3): > 20 µM

O=C(N/C=C/c1ccc(C(F)(F)F)cc1)Nc1ccc2c(c1)OCO2 [Compound 432]
IC50 at 72 h ([1]; Table 2.3): > 20 µM
IC50 at 72 h ([2]; Table 2.3): > 20 µM
IC50 at 72 h ([3]; Table 2.3): > 20 µM

N#Cc1ccc(NC(=O)N/C=C/c2cccc(F)c2)cc1C(F)(F)F [Compound 433]
IC50 (LNCaP cells): 1.9 µM
IC50 (22Rv1 cells): 3.2 µM
IC50 (DU145 cells): 3.9 µM

O=C(N/C=C/c1ccco1)Nc1ccc([N+](=O)[O-])c(C(F)(F)F)c1 [Compound 434]
IC50 at 72 h ([1]; Table 2.4): 2 µM
IC50 at 72 h ([2]; Table 2.4): 5.6 µM
IC50 at 72 h ([3]; Table 2.4): 7.8 µM

CN(C)c1ccc(NC(=O)N/C=C/c2cccc(C(F)(F)F)c2)cc1 [Compound 435]
IC50 (LNCaP cells): 13.1 µM
IC50 (22Rv1 cells): > 20 µM
IC50 (DU145 cells): 20 µM

O=C(N/C=C/c1cc(C(F)(F)F)ccc1C(F)(F)F)Nc1ccc([N+](=O)[O-])c(C(F)(F)F)c1 [Compound 436]
IC50 (LNCaP cells): 0.5 µM
IC50 (22Rv1 cells): 0.8 µM
IC50 (DU145 cells): 0.7 µM

O=C(N/C=C/c1cccc(OC(F)(F)F)c1)Nc1ccc([N+](=O)[O-])c(C(F)(F)F)c1 [Compound 437]
IC50 (LNCaP cells): 1.6 µM
IC50 (22Rv1 cells): 2.7 µM
IC50 (DU145 cells): 3 µM

O=C(N/C=C/c1cc(C(F)(F)F)cc(C(F)(F)F)c1)Nc1ccc([N+](=O)[O-])c(C(F)(F)F)c1 [Compound 438]
IC50 (LNCaP cells): 0.5 µM
IC50 (22Rv1 cells): 0.6 µM
IC50 (DU145 cells): 0.9 µM

O=C(N/C=C/c1cccc(C(F)(F)F)c1)Nc1cccc(NC(=O)N/C=C/c2cccc(C(F)(F)F)c2)c1 [Compound 440]
IC50 at 72 h ([1]; Table 5.1): 1.7 µM
IC50 at 72 h ([2]; Table 5.1): 4.9 µM
IC50 at 72 h ([3]; Table 5.1): 5.1 µM

COc1cc([N+](=O)[O-])ccc1NC(=O)N/C=C/c1cccc(C(F)(F)F)c1 [Compound 441]
IC50 (LNCaP cells): 4.8 µM
IC50 (22Rv1 cells): 8.3 µM
IC50 (DU145 cells): 6.7 µM

O=C(N/C=C/c1ccc2c(c1)OCO2)Nc1ccc([N+](=O)[O-])c(C(F)(F)F)c1 [Compound 444]
IC50 at 72 h ([1]; Table 2.4): 14.6 µM
IC50 at 72 h ([2]; Table 2.4): 17.5 µM
IC50 at 72 h ([3]; Table 2.4): 14 µM

Cc1ccccc1NC(=O)N/C=C/c1cccc(C(F)(F)F)c1 [Compound 445]
IC50 (LNCaP cells): 4.1 µM
IC50 (22Rv1 cells): 5.2 µM
IC50 (DU145 cells): 4.8 µM

O=C(N/C=C/c1cccc(C(F)(F)F)c1)Nc1ccc(-n2ccnc2)cc1 [Compound 446]
IC50 (LNCaP cells): 11.1 µM
IC50 (22Rv1 cells): 18.4 µM
IC50 (DU145 cells): > 20 µM
